Data on 78 compounds can be found in paper PMC12040169 (PLOS Biology, 2025).

Each structure is given as a SMILES string.

One series can be described thus: in vitro. The following applies: human, hela cells, % viability.
With `CC(=O)Nc1c(O)nc(SCC(=O)Nc2ccc(C(C)=O)cc2)[nH]c1=O` [CBK268527], the viability (in general, a read-out of living cells in per cent, often relative to untreated cells) at 28.5 h, 10 µM was 106%. For the compound `CC1CCCCN1S(=O)(=O)c1ccc(NCCC(=O)c2ccc(Cl)cc2)cc1` (stereo not drawn) [CBK268529], the viability at 28.5 h, 10 µM is 113%. `Cc1cc(NS(=O)(=O)c2ccc(OCCNS(C)(=O)=O)cc2)no1` [CBK268530]: the viability at 28.5 h, 10 µM stood at 102%. Same read-out and setting: with `O=C(COc1ccc(S(=O)(=O)N2CCOCC2)cc1)NCc1ccccc1` [CBK268533] the figure was 98.6%; with `Cc1cc(C)n2nc(SCC(=O)O)nc2n1` [CBK268536], 111%. The same measure, in the same setting: the figure for `O=C1c2ccccc2C(=O)N1CCCc1nc2c3c4c(sc3ncn2n1)CCCCC4` [CBK268540] is 93.4%; for `COc1cc(C(CC(=O)O)C(=O)O)c([N+](=O)[O-])cc1OC` (stereo not drawn) [CBK268541] it is 96.9%; for `O=C(CSCc1ccc(Cl)c(Cl)c1)Nc1cccnc1` [CBK268542] it is 112%. With `O=C(CSCc1ccc(Br)cc1)Nc1cccnc1` [CBK268543], the viability at 28.5 h, 10 µM worked out at 104%. Still for that read-out and setting: the figure for `N=c1c2c(-c3ccccc3)c(-c3ccccc3)n(Cc3ccco3)c2ncn1CCN1CCOCC1` [CBK268545] is 93.5%. Consider `Cc1ccc(-c2nc3ncccc3o2)cc1NC(=O)c1ccc(-c2cccc([N+](=O)[O-])c2)o1` [CBK268548], for which the viability at 28.5 h, 10 µM turned out to be 90.7%. Turning to `CCCCNS(=O)(=O)c1ccc(OCC(=O)O)cc1` [CBK268550], the viability at 28.5 h, 10 µM worked out at 99.1%.

Turning to `COc1cc(C2C3=C(CC(C)(C)CC3=O)Nc3ncnn32)ccc1OCC(=O)N1CCOCC1` (stereo not drawn) [CBK268551], the viability at 28.5 h, 10 µM was determined as 102%. The same measure, in the same setting: the figure for `O=C(O)CSc1nnc2n(-c3ccccc3)c3ccccc3n12` [CBK268557] is 106%; for `CCc1c(C)nc(N)nc1N1N=C1SC(C(C)=O)C(C)=O` [CBK268558] it is 99.4%.

On to `CCC(c1nc2ccccc2c(=O)n1CCCn1ccnc1)N1C(=O)c2ccccc2C1=O` (stereo not drawn) [CBK268560], for which the viability at 28.5 h, 10 µM is 107%. The same measure, in the same setting: the figure for `CCN1CCN(c2nc(N)c3ccccc3n2)CC1` [CBK268561C] is 82.4%; for `O=C(O)Cc1ccc(NC(=O)CN2C(=O)c3ccccc3C2=O)cc1` [CBK268562] it is 104%. Consider `O=C(O)c1cc(NC(=O)C2CC2)cc(C(=O)O)c1` [CBK268564], for which the viability at 28.5 h, 10 µM amounted to 94.3%. As to `Cc1ccc([N+](=O)[O-])c(OCCN2CCN(Cc3ccccc3)CC2)c1` [CBK268568G], the viability at 28.5 h, 10 µM came out at 99.2%. Still for that read-out and setting: the figure for `Cc1ccc(C(=O)NCCC(=O)Nc2ccccc2C)cc1` [CBK268569] is 103%; for `Cc1ccc(SC(C)C(=O)Nn2cnnc2)cc1` (stereo not drawn) [CBK268570] it is 93.3%; for `O=C(O)COc1ccc(NC(=O)Cc2ccc([N+](=O)[O-])cc2)cc1` [CBK268573] it is 104%.

For the compound `O=C(NCCSCc1c(F)cccc1Cl)Nc1cccc(Cl)c1` [CBK268574], the viability at 28.5 h, 10 µM came out at 98.6%. The same measure, in the same setting: with `Brc1c(OCCNCCN2CCOCC2)ccc2ccccc12` [CBK268576G] the figure was 115%; with `O=C(Nc1ccc(NC(=O)c2cc3ccccc3o2)cc1)c1ccc(-c2cccc([N+](=O)[O-])c2)o1` [CBK268579], 86.8%; with `Cc1ccc(OCc2nnc(SCC(=O)c3cccc([N+](=O)[O-])c3)n2C)cc1` [CBK268580], 86.9%. Same read-out and setting: with `Cc1ccc(SCCNCCN2CCOCC2)cc1` [CBK268581G] the figure was 104%; with `CCN1CCN(c2ccc(NC(=S)NC(=O)c3ccccc3Br)cc2)CC1` [CBK268583], 102%; with `CN(Cc1ccccc1)C(=O)CCNS(=O)(=O)c1ccccc1` [CBK268585], 103%. As for `CN(Cc1ccccc1)C(=O)CNS(=O)(=O)c1ccc([N+](=O)[O-])cc1` [CBK268586], the viability at 28.5 h, 10 µM was 107%. Still for that read-out and setting: the figure for `Cc1nnc2sc(-c3ccc(CNC(=S)NC(=O)c4ccccc4[N+](=O)[O-])cc3)nn12` [CBK268588] is 84.6%; for `Cc1ccc(S(=O)(=O)Cc2ccc(C(=O)Nc3cccc(-c4cnc5ccccc5n4)c3)cc2)cc1` [CBK268589] it is 89.3%. Turning to `Cc1ccccc1OCCCNCCN1CCOCC1` [CBK268590C], the viability at 28.5 h, 10 µM was determined as 106%. Regarding `COc1c(C(=O)Nc2ccc(CN3CCOCC3)cc2)cc2ccccc2c1Br` [CBK268593], the viability at 28.5 h, 10 µM was 103%. For `CC(C(=O)Nc1ccc2c(c1)OCO2)N(c1ccc(Cl)cc1)S(C)(=O)=O` (stereo not drawn) [CBK268595], the viability at 28.5 h, 10 µM amounted to 89.5%. The same measure, in the same setting: with `CCN1CCN(c2c(Cl)cccc2NC(=O)c2ccc(-c3cccc([N+](=O)[O-])c3)o2)CC1` [CBK268596] the figure was 86.4%; with `CN(CC(=O)Nn1cnnc1)S(=O)(=O)c1ccc(Br)cc1` [CBK268597], 85.9%. On the same count and under the same terms, with `COc1cc(NC(=O)c2ccc(-c3cc4ccccc4oc3=O)cc2)ccc1NC(=O)C(C)C` [CBK268601] the figure was 103%; with `CS(=O)(=O)N1CCN(c2ccc(NC(=O)c3ccc(-c4cccc([N+](=O)[O-])c4)o3)cc2)CC1` [CBK268602], 98.6%. Same read-out and setting: with `Clc1ccc(SCCCNCCN2CCOCC2)cc1` [CBK268603C] the figure was 90.3%; with `Cc1ccccc1OC(C)C(=O)Nc1nnc[nH]1` (stereo not drawn) [CBK268605], 85.6%.

For `O=C(Nc1ccccc1C(=O)N1CCCC1)c1ccccc1CCc1ccccc1` [CBK268608], the viability at 28.5 h, 10 µM was 104%. Regarding `Cc1cc(OCc2nnc(SCC(=O)N3CCN(c4ccccc4)CC3)n2C)ccc1Cl` [CBK268611], the viability at 28.5 h, 10 µM came out at 104%. The same measure, in the same setting: with `O=C(Nc1ccc2oc(-c3cccnc3)nc2c1)c1cccc(-c2cc3ccccc3oc2=O)c1` [CBK268612] the figure was 89.3%. The same measure, in the same setting: the figure for `O=C(CN1C(=O)c2ccccc2C1=O)Nc1cccc(-c2cnc3ccccc3n2)c1` [CBK268614] is 115%.

As for `O=C(Nc1nnc[nH]1)c1ccccc1CCc1ccccc1` [CBK268616], the viability at 28.5 h, 10 µM came out at 95.9%. Still for that read-out and setting: the figure for `Cc1ccccc1OC(C)C(=O)Nn1cnnc1` (stereo not drawn) [CBK268619] is 96.2%; for `O=C(CCN1C(=O)c2cccc([N+](=O)[O-])c2C1=O)Nc1cccc(-c2cnc3ccccc3n2)c1` [CBK268620] it is 104%; for `CC(=O)Nc1ccccc1NC(=O)c1ccccc1CCc1ccccc1` [CBK268621] it is 97.1%.

In the case of `O=C(Nc1ccc(N2CCN(Cc3ccccc3)CC2)cc1)c1ccc(-c2ccccc2)cc1` [CBK268622], the viability at 28.5 h, 10 µM came to 109%. Same read-out and setting: the figure for `Cc1c(NC(=O)c2ccc3c(c2)C(=O)N(Cc2ccco2)C3=O)cccc1C(=O)O` [CBK268627] is 92.9%; for `O=[N+]([O-])c1cccc(C(Nc2cccnc2)c2cc(Cl)c3cccnc3c2O)c1` (stereo not drawn) [CBK268629] it is 93.7%; for `Cc1ccc(S(=O)(=O)Cc2ccc(C(=O)NCc3ccco3)cc2)cc1` [CBK268630] it is 105%. Still for that read-out and setting: the figure for `NCCCNCCOc1ccc(Cl)c(Cl)c1` [CBK268631C] is 111%; for `CC(O)CNCCCOc1ccccc1-c1ccccc1` (stereo not drawn) [CBK268633G] it is 97.6%. Still for that read-out and setting: the figure for `CC(C)(C)C1CCc2c(sc(NC(=S)NC(=O)c3cc4ccccc4o3)c2C(N)=O)C1` (stereo not drawn) [CBK268635] is 95%.

As for `Cc1ccc(-c2ccc(CCC(=O)O)n2CC2CCCO2)cc1` (stereo not drawn) [CBK268636], the viability at 28.5 h, 10 µM turned out to be 101%. On the same count and under the same terms, the figure for `Oc1c(C(Nc2cccnc2)c2cccs2)ccc2cccnc12` (stereo not drawn) [CBK268637] is 72.4%. Same read-out and setting: with `Cc1ccc(SC(C)C(=O)Nc2nc[nH]n2)cc1` (stereo not drawn) [CBK268638] the figure was 107%; with `O=C(COc1ccccc1[N+](=O)[O-])Nc1cc(-c2nc3cc(Cl)ccc3o2)ccc1Cl` [CBK268639], 116%; with `Cc1ccc(OC(C)C(=O)N(C)c2ccccc2)cc1` (stereo not drawn) [CBK268645], 111%. As to `COc1cc(OC)c(NC(=O)C(C)Oc2cccc(C)c2)cc1Cl` (stereo not drawn) [CBK268646], the viability at 28.5 h, 10 µM was determined as 107%. Turning to `COc1cc(NC(=O)COc2cc(C)cc(C)c2)c(C(=O)O)cc1OC` [CBK268650], the viability at 28.5 h, 10 µM worked out at 93.8%. For `Cc1cccc(NC(=O)Cn2cc(C(=O)COc3ccccc3)c3ccccc32)c1` [CBK268654], the viability at 28.5 h, 10 µM worked out at 104%.

As for `Cc1ccc(SCC(=O)Nc2cc([N+](=O)[O-])ccc2O)cc1` [CBK268655], the viability at 28.5 h, 10 µM is 123%. Same read-out and setting: the figure for `O=C(CSCc1ccccc1Cl)Nc1ccc(-c2nnc(-c3ccccc3)o2)cc1` [CBK268656] is 111%; for `CC(CNC(=O)C(C)Oc1ccccc1)CN(C)C` (stereo not drawn) [CBK268658] it is 94%. Still for that read-out and setting: the figure for `COc1cccc(C(=O)Nc2ccc(O)cc2C(=O)O)c1` [CBK268662] is 104%; for `O=C(Nc1ccc2oc(-c3cccnc3)nc2c1)c1ccc(N2CCOCC2)c([N+](=O)[O-])c1` [CBK268664] it is 100%. On to `COc1ccc(-c2noc(CSc3nc4ccccc4c(=O)n3-c3ccccc3)n2)cc1OC` [CBK268667], for which the viability at 28.5 h, 10 µM was 100%.

Take `CCn1c(SCc2nc(-c3ccc(Br)cc3)no2)nnc1-c1c[nH]c2ccccc12` [CBK268668]: the viability at 28.5 h, 10 µM was determined as 94.3%.

Turning to `Cc1ccccc1CSCCNC(=O)Nc1ccc(Cl)cc1` [CBK268669], the viability at 28.5 h, 10 µM turned out to be 101%. Turning to `CC(=O)Nc1ccc(S(=O)(=O)Nc2ccc(-c3cn4cccnc4n3)cc2)cc1` [CBK268671], the viability at 28.5 h, 10 µM came to 105%. Same read-out and setting: with `O=C(CCC(=O)c1ccc2c(c1)Cc1ccccc1-2)Nc1ccc(C(=O)O)cc1` [CBK268673] the figure was 110%; with `CN1C=NC2C1C(=O)N(CCn1c(=O)c3c(ncn3C)n(C)c1=O)C(=O)N2C` (stereo not drawn) [CBK268678], 101%; with `CSc1ncc(Cl)c(C(=O)NCCc2ccc(S(N)(=O)=O)cc2)n1` [CBK268679], 104%.

The same series, now with this note: human, hela cells, % viability, bulk resorufin, single well.
As to `COC(=O)CC1(CC(=O)OC)C(=O)N(C)C(=O)N(C)C1=O` [CBK268554], the viability at 28.5 h, 10 µM is 98.5%.
